Measured values: patent publication US6900191B1, “1α-Hydroxyvitamin D5, its synthesis and use in cancer prevention” (OncQuest, Inc., priority 1997, dated 2005)
“Also recorded” adds a separate entry of the source.

Tests used:
[1] = Calcemic activity: plasma calcium levels in vitamin D-deficient rats; assay type: in vivo, rat; settings: for increase in plasma calcium over vehicle-treated control group: 0.042 μg/kg per day; for increase in plasma calcium level compared with vehicle-treated rats: higher concentration, 0.25 μg/kg per day; for Plasma calcium: vitamin D-deficient rats, means +/− standard deviation
Description: Three-week-old Sprangue-Dawley male rats were obtained from the Holtzman Laboratory, Madison, Wis. Up to three rats were housed together in a polycarbonate cage. The animal cages were kept under yellow light. The rats (eight to 10 per group per concentration of both vitamin D analogues used) were fed a vitamin D-free diet containing 0.47 g/100 g calcium and 0.3 g/100 g phosphorus. After the rats had consumed this diet for 3 weeks, their plasma calcium levels were measured. […] Such rats were administered appropriate vitamin D analogues intragastrically for 14 days. At the end of this period, the plasma calcium levels were again measured. • 3. Induction Of Preneoplastic Lesions In Mammary Glands And Their Prevention By Vitamin D3 and D5 Analogues

[2] = system: 7,12-dimethylbenz[a]anthracene-induced lesions in BALB/c mouse mammary glands; assay: DMBA-induced mammary lesions in mouse mammary gland organ culture; assay type: cell-based; settings: for number of glands exhibiting lesions / lesion formation, dependence on concentration: 0.01 μM to 10.0 μM; for No. of glands with lesions/total No. of glands treated: 10 days in culture; for % incidence of lesions: control 60.0
Description: Young, virgin BALB/c female mice, 3-4 weeks of age, were obtained from Charles River Laboratories, Wilmington, Mass. The mice were pretreated for 9 days with 17β-estradiol (1 μg in 0.1 mL saline per animal) and progesterone (1 mg in 0.1 mL saline per animal). They were then killed by cervical dislocation, and the thoracic pair of mammary glands was dissected out on silk rafts and incubated for 10 days in Waymouth MB752 medium (Life Technologies, Inc. [GIBCO BRL], Gauthersburg, Md.) containing the following growth-promoting hormones: insulin (5 μg/mL), prolactin (5 μg/mL), aldosterone (1 μg/mL), and hydrocortisone (1 μg/mL).
The carcinogen 7,12-dimethylbenz [a] anthracene (DMBA) at a dose of 2 μg/mL was added to the medium on day 3 for 24 hours to induce mammary lesions. The DMBA-containing medium was then removed, and the mammary glands were incubated for an additional 14 days with medium containing only insulin. […] These structures were termed “mammary lesions.”
The vitamin D analogues (ranging in concentration from 0.01 μM to 10.0 μM) were included in the medium during the first 10 days of the in vitro culture to determine if they lowered the incidence of mammary lesion formation. Throughout the culture period, the glands were maintained at 37° C. in an environment of 95% air and 5% CO2. At the end of the culture period, the glands were fixed in formalin, stained in alum-carmine solution, and evaluated for the presence or absence of mammary lesions. All hormones and chemicals were purchased from the Sigma Chemical Co., St. Louis, Mo. • 4. Immunohistochemistry Of VDRs And TGF-β1
To evaluate the efficacy of the newly synthesized vitamin D5 analogue in preventing mammary lesion formation, we incubated 15 mammary glands per group (135 glands in total) from BALB/c mice with appropriate hormones and exposed the glands to DMBA on day 3 for 24 hours (see “Experimental Equipment and Methods” section). The mammary glands were incubated for 10 days with the vitamin D analogues in concentrations ranging from 0.01 μM to 10.0 μM. The incidence of mammary lesions was calculated for each group and was reported as the ratio of the number of mammary glands showing lesions to the total number of mammary glands at risk.

mammary glands = assay: Toxic effects and structural differentiation of mammary glands in organ culture; assay type: cell-based, mouse; settings: for toxicity to the glands, overall: 0.1 μM or 1.0 μM tested; for toxicity to mammary glands, gland structure: 3 days
Description: (§1) Normal mouse mammary glands were dissected and incubated with growth-promoting hormones either alone or in the presence of vitamin D analogues for only 3 days. In this experiment, the glands were not exposed to DMBA (see protocol described in the previous section). Instead, the glands were fixed in buffered formalin, and 5-μm-thick sections were prepared for histopathologic evaluations. The sections were mounted on adhesive-coated slides (Superfast: Fisher Scientific Co., Itasca, Ill.), dried at 60° C. for 1 hour, deparaffinized in xylene, […] in a series of alcohol, and finally washed with phosphate-buffered saline (PBS).
To determine the effects of vitamin D analogues on the structural differentiation as well as their toxic effects on mammary glands, we incubated mammary glands with growth-promoting hormones for 3 days either alone or in the presence of 0.1 μM or 1.0 μM vitamin D analogues. The control mammary gland structure was represented by normal alveolar and ductal structures.

VDR = assay: Immunohistochemistry of VDRs in normal mouse mammary glands; assay type: cell-based; settings: 3 days
Description: as §1
(§2) To block the nonspecific antibody reactions, we treated the tissue sections with 5% dried skim milk for 10 minutes and then incubated them with primary mouse antibody (either against VDR or against TGF-β1, both obtained from BioGenex Laboratories, San Ramon, Calif.) overnight at 0-4° C. […]
(§3) The tissues were counterstained with hematoxylin-eosin, dehydrated through graded series of alcohol and xylene, and finally mounted in Permount (Fisher Scientific Co.). Slides were evaluated for the presence or absence of the VDR or TGF-β1 and for the intensity of staining in the positively strained samples. • 5. […]

ZR 75 = assay: Growth of human breast cancer cell line; assay type: cell-based
T47D = assay: Growth of human breast cancer cell line; assay type: cell-based
MCF1Oneo = assay: Growth of human breast cancer cell line; assay type: cell-based
MCF-7 = assay: Growth of human breast cancer cell line; assay type: cell-based
BCA-4 = assay: Growth of human breast cancer cell line; assay type: cell-based
breast cancer cells [3] = assay: Growth of analogue-differentiated breast cancer cells transplanted in athymic mice; assay type: in vivo, mouse; settings: cells differentiated with the analogue before transplantation
breast cancer cells [4] = assay: Growth of breast cancer cells in athymic mice injected with the analogue; assay type: in vivo, mouse; settings: injection of 8 mg, 3 × week/2 months, athymic mice bearing breast cancer cells
[5] = Stability studies on storage; assay type: physicochemical; settings: 20° C.
TGF-β1 = assay: Immunohistochemistry of TGF-β1 in normal mouse mammary glands; assay type: cell-based; settings: 1.0 μM, 3 days
Description: as §1, §2, §3

[6] = system: HL-60 human leukemia cells; settings: cited from earlier work
[7] = 0.042 μg/kg/day intragastrically for 14 days
[8] = 0.25 μg/kg/day intragastrically for 14 days

| SMILES | increase in plasma calcium over vehicle-treated control group [1] [%] | increase in plasma calcium level compared with vehicle-treated rats [1] [%] | Plasma calcium [1, 7] [mg/dL] | Plasma calcium [1, 8] [mg/dL] | No. of glands with lesions/total No. of glands treated ([2]; 0.01 μM) | % incidence of lesions ([2]; 0.01 μM) [%] | No. of glands with lesions/total No. of glands treated ([2]; 0.1 μM) | % incidence of lesions ([2]; 0.1 μM) [%] | No. of glands with lesions/total No. of glands treated ([2]; 1.0 μM) | % incidence of lesions ([2]; 1.0 μM) [%] | No. of glands with lesions/total No. of glands treated ([2]; 10.0 μM) | % incidence of lesions ([2]; 10.0 μM) [%] | toxicity to mammary glands, gland structure (mammary glands; 1.0 μM) | stability in solution [5] | storage stability in powder form [5] | other results |
| --- | --- | --- | --- | --- | --- | --- | --- | --- | --- | --- | --- | --- | --- | --- | --- | --- |
| C=C1/C(=C\C=C2/CCC[C@]3(C)[C@@H]([C@H](C)CC[C@@H](CC)C(C)C)CC[C@@H]23)C[C@@H](O)C[C@@H]1O [1α(OH)D5, 1α-Hydroxyvitamin D5] | 11 | 50 | 6.0 ± 0.63 | 7.9 ± 1.5 | 6/16 | 37.5 | 4/16 | 25.0 | 2/14 | 14.3 | 0/15 | 0.0 | retained the healthy structural characteristics | one month | a year | calcemic effects compared with 1α,25(OH)2D3 ([1]; overall, both doses): overall lower calcemic effects; also recorded: much less calcemic; number of glands exhibiting lesions / lesion formation, dependence on concentration [2]: dose-related decrease; number of glands exhibiting lesions / lesion formation, dependence on concentration ([2]; listed as vitamin D5 analogue): inhibited the lesion formation in a dose-dependent manner; percent inhibition of formation of lesions ([2]; 10.0 μM): 100%; toxicity to the glands, overall (mammary glands): did not result in any toxicity; toxicity to the glands, overall (mammary glands; listed as vitamin D5 analogue): considerably less toxic than the vitamin D3 analogue; expression of VDRs (staining) in mammary epithelial cells (VDR; 0.1 μM (lower concentration)): much less; expression of VDRs (staining) in mammary epithelial cells (VDR; 1.0 μM): induced expression of VDRs; growth of cell line (ZR 75): inhibited growth; growth of cell line (T47D): inhibited growth; growth of cell line (MCF1Oneo): inhibited growth; growth of cell line (MCF-7): inhibited growth; growth of cell line (BCA-4): inhibited growth; growth of differentiated cells when transplanted in athymic mice (breast cancer cells [3]): did not grow; growth of cancer cells in the animals (breast cancer cells [4]): inhibited growth |
| C=C1/C(=C\C=C2/CCC[C@]3(C)[C@@H]([C@H](C)CCCC(C)(C)O)CC[C@@H]23)C[C@@H](O)C[C@@H]1O [1α,25(OH)2D3, 1α,25-dihydroxyvitamin D3, reference compound] | 50 | 87 | 8.1 ± 1.2 | 10.1 ± 1.8 | two of 14 | 14.3 | 0/15 | 0.0 | 0/15 | 0.0 | 0/15 | 0.0 | disintegration of ducts and structural toxicity to the glands | one month | a year | Plasma calcium ([1]; 0.042 μg/kg/day intragastrically for 14 days, listed as 1α, 25(OH)2D3): 8.1 ± 1.2 mg/dL; Plasma calcium ([1]; 0.25 μg/kg/day intragastrically for 14 days, listed as 1α, 25 (OH)2D3): 10.1 ± 1.8 mg/dL; No. of glands with lesions/total No. of glands treated ([2]; 0.01 μM, listed as 1,25α-dihydroxyvitamin D3): 2/14; mammary lesions ([2]; concentrations higher than 0.01 μM): no mammary lesions were observed; toxicity to mammary glands, gland structure (mammary glands; 0.1 μM): did not show toxicity; concentrations toxic to the glands (mammary glands; 3 days in organ culture): ≥ 1000 nM; induction of TGF-β1 in mammary epithelial cells (TGF-β1): much reduced |
| C=C1/C(=C/C=C2\CCC[C@]3(C)C([C@H](C)CC#CC(O)(C(F)(F)F)C(F)(F)F)=CC[C@@H]23)C[C@@H](O)C[C@@H]1O [Ro24-5531, 1α, 25-dihydroxy-16-ene-23-yne-26,27-hexafluorocholecalciferol] | – | – | – | – | – | – | – | – | – | – | – | – | – | – | – | expression of TGF-β1 and its type 2 receptors [6]: induced expression |
